Results reported in ChEMBL document CHEMBL2346530, “Discovery of non-peptide inhibitors of Plasmepsin II by structure-based virtual screening” (Bioorg Med Chem Lett, 2013).

Assays:
[1] = target: Plasmepsin II (Plasmodium falciparum) (UniProt P46925); assay: Inhibition of recombinant Plasmodium falciparum plasmepsin 2 expressed in Escherichia coli using DABCYL-Glu-Arg-Nle-Phe-Leu-Ser-Phe-Pro-EDANS as substrate at 10 uM incubated for 40 mins prior to substrate addition measured after 10 mins by FRET-based fluorometric analysis
Plasmepsin II (Plasmodium falciparum), sequence (P46925 125-453 limits assumed): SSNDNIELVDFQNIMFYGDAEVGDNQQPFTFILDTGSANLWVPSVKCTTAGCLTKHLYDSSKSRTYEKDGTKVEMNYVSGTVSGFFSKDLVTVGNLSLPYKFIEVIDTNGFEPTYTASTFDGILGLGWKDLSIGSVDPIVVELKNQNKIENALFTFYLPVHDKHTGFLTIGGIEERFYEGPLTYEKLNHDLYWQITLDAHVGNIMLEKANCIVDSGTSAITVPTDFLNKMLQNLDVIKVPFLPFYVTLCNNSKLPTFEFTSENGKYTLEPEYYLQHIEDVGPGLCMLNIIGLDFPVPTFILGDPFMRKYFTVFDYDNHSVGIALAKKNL

[2] = target: Plasmepsin II (Plasmodium falciparum, UniProt P46925); assay: Inhibition of recombinant Plasmodium falciparum plasmepsin 2 expressed in Escherichia coli using DABCYL-Glu-Arg-Nle-Phe-Leu-Ser-Phe-Pro-EDANS as substrate incubated for 40 mins prior to substrate addition measured after 10 mins by FRET-based fluorometric analysis
Plasmepsin II, sequence (P46925 whole entry): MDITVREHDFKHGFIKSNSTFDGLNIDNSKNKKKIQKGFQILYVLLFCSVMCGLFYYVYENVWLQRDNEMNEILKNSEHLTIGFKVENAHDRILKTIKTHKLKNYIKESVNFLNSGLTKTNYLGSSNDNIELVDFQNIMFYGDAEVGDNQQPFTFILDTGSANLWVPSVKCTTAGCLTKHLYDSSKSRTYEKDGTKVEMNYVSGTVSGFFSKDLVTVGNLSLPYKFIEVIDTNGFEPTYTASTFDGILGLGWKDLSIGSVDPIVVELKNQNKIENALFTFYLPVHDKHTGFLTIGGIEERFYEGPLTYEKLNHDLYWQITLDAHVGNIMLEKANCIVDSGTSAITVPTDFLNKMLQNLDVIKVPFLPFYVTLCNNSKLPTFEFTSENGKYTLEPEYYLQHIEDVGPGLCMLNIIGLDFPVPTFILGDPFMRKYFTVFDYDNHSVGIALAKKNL

SMILES | inhibition [1] | IC50 [2]
OC(CNCc1ccccc1)Cn1c2ccc(Cl)cc2c2cc(Cl)ccc21 (stereo not given) | 52% | 9.47 µM
N=C(S)NN/C(=C\c1nc(-c2ccccn2)cc2ccccc12)c1ccc(Cl)cc1 | 55% | 6.45 µM

Now from value to compound:

inhibition [1] | IC50 [2] | SMILES
54.7% | 8.99 µM | O=C(CN(c1cccc(Br)c1)S(=O)(=O)c1ccccc1)Nc1ccc(CSc2ccccc2)cc1
60.6% | 7 µM | Cc1ccc(S(=O)(=O)Nc2ccccc2CNc2cnc3ccccc3c2)cc1
67.7% | 4.62 µM | Cc1ccccc1N/C(=N\N=C/c1ccc2ccc3ccc(/C=N\N=C(/Nc4ccccc4C)c4ccccn4)nc3c2n1)c1ccccn1
